This is an account of results in ChEMBL document CHEMBL6182925 (J Med Chem, 2025).

≈ marks a conversion by molar mass, not a printed value.

A short description of data set [1]: Kinetic solubility of compound at pH 2. Type of data set: physicochemical. As to conditions: buffer, read-out: Kinetic_solubility.
Data set [2] is described as follows: Kinetic solubility of compound at pH 4.5. As to conditions: buffer, read-out: Kinetic_solubility. Type of data set: physicochemical.
Data set [3] concerns the target T1, Alpha-2A adrenergic receptor (Homo sapiens) (UniProt P08913).
T1 sequence (whole entry): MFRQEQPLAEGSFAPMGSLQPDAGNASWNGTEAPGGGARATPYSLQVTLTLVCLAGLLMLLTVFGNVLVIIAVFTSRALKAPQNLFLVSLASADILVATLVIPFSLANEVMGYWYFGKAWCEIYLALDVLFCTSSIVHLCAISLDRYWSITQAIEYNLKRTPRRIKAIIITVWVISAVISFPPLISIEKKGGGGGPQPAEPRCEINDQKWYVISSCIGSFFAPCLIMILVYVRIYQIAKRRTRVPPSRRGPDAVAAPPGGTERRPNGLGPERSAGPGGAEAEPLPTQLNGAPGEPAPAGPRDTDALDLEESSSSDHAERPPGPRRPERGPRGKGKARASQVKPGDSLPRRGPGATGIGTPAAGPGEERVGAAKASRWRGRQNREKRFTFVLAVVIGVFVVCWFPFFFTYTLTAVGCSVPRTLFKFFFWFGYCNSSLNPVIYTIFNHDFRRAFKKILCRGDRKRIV
Description: Inhibition of alpha 2A adrenergic receptor (unknown origin) at 10 uM by CEREP analysis relative to control.

In the next data set the target is hERG (Homo sapiens, UniProt Q12809). As to the kind of experiment: Inhibition of hERG at 10 uM by CEREP analysis relative to control. Format: toxicity.
Data set [4] concerns the target 5-hydroxytryptamine receptor 1B (Homo sapiens) (UniProt P28222). Description: Inhibition of 5-HT1B receptor (unknown origin) at 10 uM by CEREP analysis relative to control.
Data set [5] deals with 5-hydroxytryptamine receptor 2B (Homo sapiens) (UniProt P41595). As to the kind of experiment: Inhibition of 5-HT2B receptor (unknown origin) at 10 uM by CEREP analysis relative to control.
The species named for a further data set is Homo sapiens. Description: Inhibition of sodium channel site 2 (unknown origin) at 10 uM by CEREP analysis relative to control.
The target of a further data set is L-type calcium channel (Homo sapiens, UniProt O60840+Q01668+Q13698+Q13936). As to the kind of experiment: Inhibition of Calcium channel L-type (unknown origin) at 10 uM by CEREP analysis relative to control. Type of data set: protein assay.
The target of data set [6] is Sodium-dependent serotonin transporter (Homo sapiens) (UniProt P31645). As to the kind of experiment: Inhibition of SERT (unknown origin) at 10 uM by CEREP analysis relative to control.
Data set [7] has as its target cGMP-inhibited 3',5'-cyclic phosphodiesterase 3A (Homo sapiens) (UniProt Q14432). Description: Inhibition of PDE3A (unknown origin) at 10 uM by CEREP analysis relative to control.
Data set [8] concerns the target 3',5'-cyclic-AMP phosphodiesterase 4D (Homo sapiens) (UniProt Q08499). As to the kind of experiment: Inhibition of PDE4D2 (unknown origin) at 10 uM by CEREP analysis relative to control.
Data set [9] is described as follows: Half life in female Balb/c mouse at 5 mg/kg, iv. The following applies: in vivo. Format: ADME, organism-based.
Data set [10] in a line: Clearance in female Balb/c mouse at 5 mg/kg, iv. Format: ADME, organism-based. As to conditions: in vivo.
The nature of data set [11]: AUClast in Balb/c mouse at 10 mg/kg, po. Type of data set: ADME, organism-based. As to conditions: in vivo.
A short description of data set [12]: Oral bioavailability in Balb/c mouse at 10 mg/kg. Format: ADME, organism-based. As to conditions: in vivo.
A short description of data set [13]: Half life in male Sprague-Dawley rat at 3 mg/kg, iv. Format: ADME, organism-based. As to conditions: in vivo.
A short description of data set [14]: Clearance in male Sprague-Dawley rat at 3 mg/kg, iv. As to conditions: in vivo. Type of data set: ADME, organism-based.
A short description of data set [15]: AUClast in male Sprague-Dawley rat at 10 mg/kg, po. Type of data set: ADME, organism-based. As to conditions: in vivo.
The nature of data set [16]: Oral bioavailability in male Sprague-Dawley rat at 10 mg/kg. Type of data set: ADME, organism-based. The following applies: in vivo.
A short description of data set [17]: Half life in male Beagle dog at 2 mg/kg, iv. Format: ADME, organism-based, Canis lupus familiaris. As to conditions: in vivo.
Data set [18] can be described thus: Clearance in male Beagle dog at 2 mg/kg, iv. Type of data set: ADME, organism-based, Canis lupus familiaris. The following applies: in vivo.
Data set [19] is described as follows: AUClast in male Beagle dog at 15 mg/kg, po. Format: ADME, organism-based, Canis lupus familiaris. As to conditions: in vivo.
Data set [20] is described as follows: Oral bioavailability in male Beagle dog at 15 mg/kg. Format: ADME, organism-based, Canis lupus familiaris. The following applies: in vivo.
The nature of data set [21]: Stability in mouse hepatocytes measured for 127 mins. Type of data set: ADME, cell-based, Hepatocyte. The following applies: 2.117 h.
Data set [22] in a line: Stability in rat hepatocytes measured for 175 mins. Type of data set: ADME, cell-based, Hepatocyte. As to conditions: 2.917 h.
Data set [23] is described as follows: Stability in dog hepatocytes. Type of data set: ADME, cell-based, Canis lupus familiaris, Hepatocyte.
Data set [24] in a line: Stability in monkey hepatocytes measured for 75 mins. Type of data set: ADME, cell-based, Macaca mulatta, Hepatocyte. As to conditions: rhesus monkey, 1.25 h.
The nature of data set [25]: Stability in human hepatocytes. Format: ADME, cell-based, Hepatocyte.
Data set [26] can be described thus: Volume of distribution in female Balb/c mouse at 5 mg/kg, iv. As to conditions: in vivo. Format: ADME, organism-based.
The nature of data set [27]: Volume of distribution in male Sprague-Dawley rat at 3 mg/kg, iv. Format: ADME, organism-based. The following applies: in vivo.
Data set [28] can be described thus: Volume of distribution in male Beagle dog at 2 mg/kg, iv. Format: ADME, organism-based, Canis lupus familiaris. The following applies: in vivo.
A short description of data set [29]: Dose-normalized AUC in male Sprague-Dawley rat at 10 mg/kg, po. Type of data set: ADME, organism-based. As to conditions: in vivo.
Data set [30] in a line: Dose-normalized AUC in female Balb/c mouse at 10 mg/kg, po. Format: ADME, organism-based. The following applies: in vivo.
Data set [31] in a line: Dose-normalized AUC in male Beagle dog at 15 mg/kg, po. Format: ADME, organism-based, Canis lupus familiaris. As to conditions: in vivo.
Data set [32] is described as follows: Oral bioavailability in female Balb/c mouse at 30 mg/kg. Type of data set: ADME, organism-based. The following applies: in vivo.
The nature of data set [33]: Oral bioavailability in male Sprague-Dawley rat at 30 mg/kg. Type of data set: ADME, organism-based. The following applies: in vivo.
A short description of data set [34]: Oral bioavailability in male Beagle dog at 30 mg/kg. Format: ADME, organism-based, Canis lupus familiaris. As to conditions: in vivo.
Another data set in a line: cells. As to conditions: Mus musculus, BaF3/TRP-Met, 72 h.
Data set [35] has as its system BaF3. As to the kind of experiment: cells. As to conditions: Mus musculus, BaF3, 72 h.
Data set [36] concerns BaF3. Description: Antitumor activity against mouse BaF3 cells harboring TPR-D1228N mutant cells allografted in athymic BALB/c nude mouse at 10 mg/kg, po bid treated for 10 days relative to control. The following applies: BaF3, 240 h, time 10 day, read-out: TGI. Format: functional.

Chain of Sodium-dependent serotonin transporter (Homo sapiens) (P31645 whole entry, looked up): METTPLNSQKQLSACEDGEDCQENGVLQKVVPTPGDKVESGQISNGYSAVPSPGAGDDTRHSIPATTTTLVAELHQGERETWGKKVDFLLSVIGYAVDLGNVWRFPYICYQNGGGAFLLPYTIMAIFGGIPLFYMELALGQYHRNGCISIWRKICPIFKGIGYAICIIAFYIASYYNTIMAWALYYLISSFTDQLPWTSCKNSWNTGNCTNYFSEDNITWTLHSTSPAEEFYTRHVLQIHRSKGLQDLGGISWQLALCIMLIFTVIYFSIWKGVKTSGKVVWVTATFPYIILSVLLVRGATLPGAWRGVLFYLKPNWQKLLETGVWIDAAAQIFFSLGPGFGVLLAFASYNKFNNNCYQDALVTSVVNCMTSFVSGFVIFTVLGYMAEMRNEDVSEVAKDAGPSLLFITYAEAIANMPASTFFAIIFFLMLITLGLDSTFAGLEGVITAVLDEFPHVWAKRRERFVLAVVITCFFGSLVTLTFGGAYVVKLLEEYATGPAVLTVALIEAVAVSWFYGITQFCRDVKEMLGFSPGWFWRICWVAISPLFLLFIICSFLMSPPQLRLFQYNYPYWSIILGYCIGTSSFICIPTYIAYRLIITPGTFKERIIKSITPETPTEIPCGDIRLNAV
Chain of cGMP-inhibited 3',5'-cyclic phosphodiesterase 3A (Homo sapiens) (Q14432 whole entry): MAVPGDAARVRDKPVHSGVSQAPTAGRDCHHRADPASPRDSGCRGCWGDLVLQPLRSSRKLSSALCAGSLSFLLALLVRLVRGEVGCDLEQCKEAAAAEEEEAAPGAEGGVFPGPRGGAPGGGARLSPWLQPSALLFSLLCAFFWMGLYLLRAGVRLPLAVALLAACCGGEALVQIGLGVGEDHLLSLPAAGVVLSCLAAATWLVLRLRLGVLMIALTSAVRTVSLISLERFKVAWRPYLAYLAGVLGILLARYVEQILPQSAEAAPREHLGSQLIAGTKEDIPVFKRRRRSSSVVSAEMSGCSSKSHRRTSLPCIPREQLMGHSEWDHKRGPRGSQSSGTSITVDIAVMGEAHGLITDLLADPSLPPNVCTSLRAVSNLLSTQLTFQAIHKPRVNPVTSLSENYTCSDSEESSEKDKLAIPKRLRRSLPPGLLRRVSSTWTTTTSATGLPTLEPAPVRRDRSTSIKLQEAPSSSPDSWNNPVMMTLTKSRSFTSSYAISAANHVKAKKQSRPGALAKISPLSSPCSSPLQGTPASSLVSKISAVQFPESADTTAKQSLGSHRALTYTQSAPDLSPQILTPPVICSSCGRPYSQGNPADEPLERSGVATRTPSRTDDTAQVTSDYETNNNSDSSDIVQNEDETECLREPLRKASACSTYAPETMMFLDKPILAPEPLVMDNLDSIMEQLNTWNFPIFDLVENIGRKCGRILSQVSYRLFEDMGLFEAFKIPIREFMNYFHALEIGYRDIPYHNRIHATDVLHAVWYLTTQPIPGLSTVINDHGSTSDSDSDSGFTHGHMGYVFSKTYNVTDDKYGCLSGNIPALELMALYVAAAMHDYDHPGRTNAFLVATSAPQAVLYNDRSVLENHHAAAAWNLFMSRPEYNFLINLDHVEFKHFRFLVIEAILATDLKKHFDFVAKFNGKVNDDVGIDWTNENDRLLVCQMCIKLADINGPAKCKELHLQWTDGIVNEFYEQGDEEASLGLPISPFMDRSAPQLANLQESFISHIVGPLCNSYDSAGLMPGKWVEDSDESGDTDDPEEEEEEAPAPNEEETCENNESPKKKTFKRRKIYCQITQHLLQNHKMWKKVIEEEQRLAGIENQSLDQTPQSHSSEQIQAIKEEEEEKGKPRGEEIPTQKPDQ
Chain of 3',5'-cyclic-AMP phosphodiesterase 4D (Homo sapiens) (Q08499 whole entry): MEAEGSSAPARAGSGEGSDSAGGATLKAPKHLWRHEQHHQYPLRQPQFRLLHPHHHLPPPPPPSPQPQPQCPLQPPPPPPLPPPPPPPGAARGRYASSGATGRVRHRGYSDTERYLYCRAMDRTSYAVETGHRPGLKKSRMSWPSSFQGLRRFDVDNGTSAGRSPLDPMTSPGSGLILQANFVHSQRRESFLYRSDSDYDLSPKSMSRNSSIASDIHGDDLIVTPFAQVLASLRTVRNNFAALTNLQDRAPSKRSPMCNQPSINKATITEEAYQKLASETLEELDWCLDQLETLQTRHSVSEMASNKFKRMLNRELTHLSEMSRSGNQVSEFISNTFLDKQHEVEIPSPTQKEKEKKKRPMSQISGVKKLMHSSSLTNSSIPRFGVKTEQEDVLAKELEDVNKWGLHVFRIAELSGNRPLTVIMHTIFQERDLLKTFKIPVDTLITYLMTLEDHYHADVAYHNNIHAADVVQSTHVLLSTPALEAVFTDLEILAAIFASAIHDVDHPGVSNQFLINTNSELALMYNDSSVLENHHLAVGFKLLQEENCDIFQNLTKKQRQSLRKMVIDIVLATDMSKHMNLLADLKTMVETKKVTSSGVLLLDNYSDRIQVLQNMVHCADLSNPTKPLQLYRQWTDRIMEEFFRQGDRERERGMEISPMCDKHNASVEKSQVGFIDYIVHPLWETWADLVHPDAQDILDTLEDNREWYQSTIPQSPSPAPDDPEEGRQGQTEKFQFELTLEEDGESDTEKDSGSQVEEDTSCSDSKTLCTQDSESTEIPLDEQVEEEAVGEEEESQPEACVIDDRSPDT
Chain of 5-hydroxytryptamine receptor 2B (Homo sapiens) (P41595 whole entry): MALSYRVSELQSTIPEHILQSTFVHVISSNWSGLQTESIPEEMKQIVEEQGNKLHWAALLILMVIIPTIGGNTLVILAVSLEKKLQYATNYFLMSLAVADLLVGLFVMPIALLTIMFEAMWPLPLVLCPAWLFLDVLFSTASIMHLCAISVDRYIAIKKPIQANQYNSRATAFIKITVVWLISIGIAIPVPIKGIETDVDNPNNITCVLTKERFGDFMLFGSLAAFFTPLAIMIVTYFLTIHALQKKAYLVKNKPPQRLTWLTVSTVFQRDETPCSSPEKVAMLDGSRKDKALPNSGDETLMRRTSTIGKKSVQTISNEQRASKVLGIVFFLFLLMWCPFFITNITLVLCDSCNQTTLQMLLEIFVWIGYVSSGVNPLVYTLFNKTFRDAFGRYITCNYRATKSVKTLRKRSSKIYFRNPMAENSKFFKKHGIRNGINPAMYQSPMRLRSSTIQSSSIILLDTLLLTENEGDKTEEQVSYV
Chain of 5-hydroxytryptamine receptor 1B (Homo sapiens) (P28222 whole entry): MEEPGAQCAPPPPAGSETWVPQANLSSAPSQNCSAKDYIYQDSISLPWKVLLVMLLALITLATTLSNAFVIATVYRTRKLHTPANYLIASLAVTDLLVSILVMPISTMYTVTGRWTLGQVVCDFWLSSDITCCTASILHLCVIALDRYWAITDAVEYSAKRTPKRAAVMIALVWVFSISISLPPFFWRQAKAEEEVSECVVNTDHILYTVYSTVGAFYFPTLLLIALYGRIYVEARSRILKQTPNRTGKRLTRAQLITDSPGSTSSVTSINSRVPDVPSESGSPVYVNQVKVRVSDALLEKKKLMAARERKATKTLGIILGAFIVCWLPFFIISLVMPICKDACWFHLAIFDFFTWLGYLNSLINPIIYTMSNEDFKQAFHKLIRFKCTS
Chain of hERG (Q12809 whole entry): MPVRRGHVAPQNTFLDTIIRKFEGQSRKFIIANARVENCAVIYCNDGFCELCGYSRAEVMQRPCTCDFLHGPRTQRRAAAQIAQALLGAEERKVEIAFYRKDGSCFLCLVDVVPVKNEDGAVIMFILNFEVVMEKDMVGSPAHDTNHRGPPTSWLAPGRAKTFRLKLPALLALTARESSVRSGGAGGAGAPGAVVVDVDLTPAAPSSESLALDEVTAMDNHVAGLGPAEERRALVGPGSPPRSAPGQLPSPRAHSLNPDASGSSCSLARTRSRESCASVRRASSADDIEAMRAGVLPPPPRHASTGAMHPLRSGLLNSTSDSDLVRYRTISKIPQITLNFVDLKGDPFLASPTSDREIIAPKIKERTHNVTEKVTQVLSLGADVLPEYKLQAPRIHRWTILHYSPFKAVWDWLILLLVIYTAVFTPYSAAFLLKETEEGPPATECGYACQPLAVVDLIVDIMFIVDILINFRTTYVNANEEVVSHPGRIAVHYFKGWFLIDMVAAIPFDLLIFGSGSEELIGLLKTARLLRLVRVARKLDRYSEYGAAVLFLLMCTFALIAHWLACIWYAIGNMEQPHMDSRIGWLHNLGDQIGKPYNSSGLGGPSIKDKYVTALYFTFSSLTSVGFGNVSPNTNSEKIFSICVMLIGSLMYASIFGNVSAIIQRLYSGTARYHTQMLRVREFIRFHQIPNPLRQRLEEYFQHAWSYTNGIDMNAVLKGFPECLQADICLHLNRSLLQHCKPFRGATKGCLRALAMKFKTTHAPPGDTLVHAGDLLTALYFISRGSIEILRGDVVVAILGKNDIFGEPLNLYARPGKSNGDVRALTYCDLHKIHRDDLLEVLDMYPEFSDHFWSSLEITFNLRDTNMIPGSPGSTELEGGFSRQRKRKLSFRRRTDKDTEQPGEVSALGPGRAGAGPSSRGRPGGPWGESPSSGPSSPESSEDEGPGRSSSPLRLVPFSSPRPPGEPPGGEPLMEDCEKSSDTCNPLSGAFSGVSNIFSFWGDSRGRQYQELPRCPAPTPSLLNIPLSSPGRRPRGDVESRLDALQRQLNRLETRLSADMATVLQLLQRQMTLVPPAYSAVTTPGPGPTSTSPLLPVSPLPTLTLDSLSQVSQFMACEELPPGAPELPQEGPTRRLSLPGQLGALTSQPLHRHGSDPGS

For the compound `COc1cc2nccc(Oc3c(F)cc(NC(=O)c4cnccc4OC)cc3F)c2cc1OCCO`, the solubility kinetic in data set [1] turned out to be 279 µM (≈ 139 µg/mL); in data set [2] it was 12.7 µM (≈ 6.32 µg/mL). The inhibition (usually the change of the read-out against control, counted positive when it falls) in data set [3] amounted to 11%; in data set [4] it was 16%; in [5], 16%; in the data set filed under Homo sapiens it was 25%; in data set [6], 10%; in data set [7] it was 34%. The inhibition in data set [8] was 31%. Also, the inhibition at 10 µM at hERG is 8%; on L-type calcium channel, 6%. For the same compound, the half-life (usually the time in which the quantity being followed falls by half) is 2.1 h in data set [9], 3 h in data set [13] and 7.1 h in data set [17]. For the same compound, the clearance (usually the volume of plasma or blood freed of the substance per unit of time) in data set [10] worked out at 4.11 mL/min/kg; in [14], 4.8 mL/min/kg; in data set [18] it was 6.7 mL/min/kg. Besides, the figures for the AUC(0-t) in data set [11], in data set [15] and in data set [19] were 8220 ng·h/mL, 28200 ng·h/mL and 7170 ng·h/mL, respectively. In addition, the bioavailability – broadly, the share of a dose that reaches the circulation, judged against a reference dose that is usually intravenous – in data set [12] stood at 20%; in [16], 61%; in data set [20], 18%; in [32] it was 13%; in [33], 34%; in data set [34], 8%. The Stability entry in data set [21], in data set [22], in [23], in data set [24] and in data set [25] was “Stable” in each case. Also, the results for the Vd in data set [26], in [27] and in [28] were 0.38 L/kg, 0.68 L/kg and 2.25 L/kg, respectively. In addition, the results for the AUC/dose in [29], in data set [30] and in [31] were 2040 ng.h/mL per mg/kg, 822 ng.h/mL per mg/kg and 464 ng.h/mL per mg/kg, respectively. Further, the concentration for a half-maximal effect (EC50) – broadly, the concentration giving half of the maximal effect – amounted to 64 nM in the data set “cells” and 40 nM with BaF3 [35].
In the case of `CNC(=O)c1ccc(-c2cnc3ncc(Cc4ccc5ncccc5c4)n3n2)cc1F` [CAPMATINIB], the solubility kinetic in data set [1] was determined as 279 µM (≈ 115 µg/mL); in data set [2], 17.5 µM (≈ 7.22 µg/mL). Besides, the inhibition in vivo at 10 mg/kg with BaF3 [36] was determined as 17%.
